Results on eight compounds are retold here after patent US12304912B2, “Fused bicyclic RAF inhibitors and methods for use thereof” (Jazz Pharmaceuticals Ireland Limited, priority 2020, dated 2025).

≈ marks a conversion by molar mass, not a printed value.

Data set [1] concerns constitutive ERK phosphorylation in WiDr cells. As to the kind of experiment: WiDr AlphaLISA SureFire pERK1/2 cellular assay. It counts as cell-based, human. To be noted: Homo sapiens; WiDr cells, 2 hr, Abs; read-out: pERK WiDr (2 hr) Abs pIC50 (converted). On the technique in general: In Alpha technology, singlet oxygen from a donor bead excites a nearby acceptor bead.
Data set [2] is described as follows: FeSSIF solubility assay. It counts as physicochemical. To be noted: fed state simulated intestinal fluid (FeSSIF), thermodynamic from solid, pH 5 acetate buffer, 37° C., read-out: FESSIF Sol. An outline of the steps:
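FeSSIF (pH 5 acetate buffer, 1 mL) was added to 1.0 mg solid compound and shaken at 650 rpm and 37 °C for 24 h. After filtration, dissolved compound was quantified by LC-UV against a 250 μM calibration standard.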

Data set [3] has as its system HCT-116 cells. As to the kind of experiment: HCT-116 CellTiter-Glo 3D cell proliferation assay. It counts as cell-based. To be noted: Homo sapiens, HCT-116; HCT116 cells, 3D proliferation; read-out: 3D HCT116 pGI50 (converted). As for the experimental part: HCT-116 CellTiter-Glo 3D Cell Proliferation Assay
The human HCT-116 colorectal carcinoma cell line (ATCC CCL-247) endogenously expresses the KRAS^G13D mutation, which leads to enhanced survival and proliferative signaling. […] On the first day, HCT-116 cells were harvested, resuspended in growth medium (McCoys5A with Glutamax (Life Technologies 36600021) with 10% heat-inactivated fetal bovine serum (Sigma F9665)), and counted. Cells were plated in 100 μl per well in each well of a Corning 7007 96-well clear round bottom Ultra-Low Attachment plate (VWR 444-1020) to a final density of 1000 cells per well. Cells were seeded for pre- and post-treatment readouts. The cells were then incubated at 37° C. and 5% CO2 for 3 days (72 hours) to allow spheroid formation. After 72 hours, the plate seeded for a pre-treatment read was removed from the incubator to allow equilibration to room temperature for 30 minutes, before CellTitre-Glo® reagent was added to each well. The plates were incubated at room temperature for 5 minutes shaking at 300 rpm, followed by an incubation of 25 minutes on the benchtop before being read on the Envision reader (Perkin Elmer) as described below. On the same day, the cells plated for the post-treatment readout were dosed with compounds to produce a 9-point dose response, where the top concentration was 15 μM and following concentrations were at 1/2 log dilution intervals. These cells were subsequently incubated at 37° C. and 5% CO2 for another 4 days (96 hours). After 4 days, the plate was removed from the incubator to allow equilibration to room temperature for 30 minutes and treated with CellTitre Glo® reagent as stated above. […] The CellTitre Glo® reagent lyses the cells and contains luciferin and a luciferase (Ultra-Glo™ Recombinant Luciferase), which in the presence of ATP and oxygen can produce bioluminescence from luciferin. Therefore, plates were read on an EnVision reader (Perkin Elmer) and luminescence signals were recorded. Cell proliferation was determined on 4 days after dosing relative to the pre-treatment read. All data were analyzed using the Dotmatics or GraphPad Prism software packages. Inhibition of proliferation was assessed by determination of the GI50 value, which was defined as the concentration of compound required to decrease the level of cell proliferation by 50% when compared to DMSO control.
In general terms: In ATP-based viability assays light output follows the ATP content of the culture.

The subject of data set [4] is WiDr cells. As to the kind of experiment: WiDr CellTiter-Glo 3D cell proliferation assay. It counts as cell-based. To be noted: Homo sapiens; WiDr cells, 3D proliferation; read-out: 3D WiDr pGI50 (converted).

Consider `O=C1CCc2c(Oc3ccc4c(c3)CN(c3nc5cc(C(F)(F)F)ccc5[nH]3)CC4)ccnc2N1` [Compound 160], for which the IC50 in data set [1] was 219 nM. Moreover, the solubility thermodynamic at 24 h in data set [2] was 3 µg/mL (≈ 6.26 µM). Also, the results for the GI50 in data set [3] and in data set [4] were 617 nM and 2090 nM, respectively.
Regarding `Cn1nc(C2CC2)cc1-c1c[nH]c(C2COc3ccc(Oc4ccnc5c4CCC(=O)N5)cc3C2)n1` (centres unmarked) [Compound 125, 5-[3-[4-(5-cyclopropyl-2-methyl-pyrazol-3-yl)-1H-imidazol-2-yl]chroman-6-yl]oxy-3,4-dihydro-1H-1,8-naphthyridin-2-one], the IC50 in data set [1] is 977 nM. In addition, in data set [2], the solubility thermodynamic at 24 h was 22 µg/mL (≈ 45.6 µM). The results for the GI50 in data set [3] and in data set [4] were 1120 nM and 15100 nM, respectively.
The matching figures for `Cc1c[nH]c(-c2cc(Oc3ccc4c(c3)CC(c3nc(-c5ccccc5)c[nH]3)CO4)ccn2)n1` (centres unmarked) [Compound 143, 2-(4-methyl-1H-imidazol-2-yl)-4-[3-(4-phenyl-1H-imidazol-2-yl)chroman-6-yl]oxy-pyridine]: 302 nM, 44.7 µg/mL (≈ 99.4 µM), 741 nM and 1510 nM.
As for `O=C(Nc1nccc(Oc2ccc3c(c2)CC(c2nc(-c4ccccc4)c[nH]2)CO3)n1)C1CC1` (centres unmarked) [Compound 148, N-[4-[3-(4-phenyl-1H-imidazol-2-yl)chroman-6-yl]oxypyrimidin-2-yl]cyclopropanecarboxamide], the IC50 in data set [1] was 871 nM. Also, in data set [2], the solubility thermodynamic at 24 h was 104 µg/mL (≈ 230 µM). Also, the GI50 is 490 nM in data set [3] and 1200 nM in data set [4].
The matching figures for `O=C1CCc2c(Oc3ccc4c(c3)CC(c3nc(-c5cncc(C(F)(F)F)c5)c[nH]3)CO4)ccnc2N1` (centres unmarked) [Compound 103, 5-[3-[4-[5-(trifluoromethyl)-3-pyridyl]-1H-imidazol-2-yl]chroman-6-yl]oxy-3,4-dihydro-1H-1,8-naphthyridin-2-one]: 269 nM, 5.2 µg/mL (≈ 10.2 µM), 288 nM and 537 nM.
The matching figures for `O=C(Nc1cc(Oc2ccc3c(c2)CC(c2nc(-c4ccccc4)c[nH]2)CO3)ccn1)C1CC1(F)F` (centres unmarked) [Compound 137, 2,2-difluoro-N-[4-[3-(4-phenyl-1H-imidazol-2-yl)chroman-6-yl]oxy-2-pyridyl]cyclopropanecarboxamide]: 74.1 nM, 73.9 µg/mL (≈ 151 µM), 70.8 nM and 126 nM.
For the compound `CN1CCN(CC(=O)Nc2cc(Oc3ccc4c(c3)CC(c3nc(-c5ccccc5)c[nH]3)CO4)ccn2)CC1` (centres unmarked) [Compound 146, 2-(4-methylpiperazin-1-yl)-N-[4-[3-(4-phenyl-1H-imidazol-2-yl)chroman-6-yl]oxy-2-pyridyl]acetamide], the IC50 in data set [1] is 398 nM. In addition, the solubility thermodynamic at 24 h in data set [2] is 404 µg/mL (≈ 770 µM). Further, the GI50 in data set [3] is 380 nM; in data set [4], 813 nM.
`O=C(CN1CC(O)C1)Nc1cc(Oc2ccc3c(c2)CC(c2nc(-c4ccccc4)c[nH]2)CO3)ccn1` (centres unmarked) [Compound 153]: the IC50 in data set [1] is 288 nM. Moreover, the solubility thermodynamic at 24 h in data set [2] is 336 µg/mL (≈ 675 µM). Besides, the GI50 was 427 nM in data set [3] and 5620 nM in data set [4].
